One may read the pIC50 as the IC50 on a negative log10 scale, so that one unit is a factor of ten. A lower pIC50 goes with a high IC50.

pIC50: −log10 of the molar value.

In this assay the target is T1, BACE2 (Rattus norvegicus, UniProt Q6IE75).
T1 construct: endogenous cellular BACE2 in the Ins1e rat cell line; endogenous in cells; host or cells: INS-TMEM27 (INS1e-derived rat insulinoma cell line with doxycycline-inducible full-length hTMEM27)
T1 sequence (Q6IE75 63-514): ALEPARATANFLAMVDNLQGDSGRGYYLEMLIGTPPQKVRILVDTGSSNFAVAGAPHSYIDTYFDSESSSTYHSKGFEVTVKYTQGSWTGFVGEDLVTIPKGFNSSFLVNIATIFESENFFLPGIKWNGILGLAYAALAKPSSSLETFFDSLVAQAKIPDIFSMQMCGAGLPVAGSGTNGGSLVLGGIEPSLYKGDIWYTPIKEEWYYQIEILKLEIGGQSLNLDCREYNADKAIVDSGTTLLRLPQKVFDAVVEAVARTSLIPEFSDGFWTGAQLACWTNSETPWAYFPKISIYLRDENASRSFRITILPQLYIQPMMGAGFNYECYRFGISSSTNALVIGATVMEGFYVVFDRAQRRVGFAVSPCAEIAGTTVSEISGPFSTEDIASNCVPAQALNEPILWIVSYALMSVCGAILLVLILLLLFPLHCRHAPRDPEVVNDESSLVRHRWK
Briefly: Assay for BACE inhibition by measuring cellular TMEM27 cleavage (INS-TMEM27 cells, ELISA of shed TMEM27). The conditions noted are these: inhibition of human TMEM27 cleavage by endogenous cellular BACE2 in Ins1e rat cell line; ELISA of culture medium. In kind it is cell-based. The text has this: Assay for BACE Inhibition by Measuring Cellular TMEM27 Cleavage
The assay uses the principle of inhibition of human TMEM27 cleavage by endogenous cellular BACE2 in the Ins1e rat cell line and shedding from the cell surface into the culture medium, followed by detection in an ELISA assay. Inhibition of BACE2 prevents the cleavage and shedding in a dose-dependent manner.
The stable cell line “INS-TMEM27” represents an INS1e-derived cell line with inducible expression (using the TetOn system) of full-length hTMEM27 in a doxycycline-dependent manner. The cells were cultured throughout the experiment in RPMI1640+Glutamax (Invitrogen) Penicillin/Streptomycin, 10% Fetal bovine serum, […], […], 100 micrograms/ml G418 and 100 microgram/ml hygromycin and were grown in adherent culture at 37° C. in a standard CO2 cell culture incubator.
INS-TMEM27 cells were seeded in 96-well plates. After 2 days in culture, BACE2 inhibitor was added in a range of concentrations as required by the assay and after a further two hours, doxycycline was added to a final concentration of 500 ng/ml. The cells were incubated for a further 46 hours and the supernatant harvested for detection of shed TMEM27.
An ELISA assay (using a pair of mouse anti-human-TMEM27 antibodies, raised against the extracellular domain of TMEM27) was used for detection of TMEM27 in the culture medium. An IC50 for BACE2 inhibition was calculated using the ELISA readout for each inhibitor concentration with standard curve-fitting software XLfit (IDBS) for the Excel spreadsheet program.
Background: ELISA stands for enzyme-linked immunosorbent assay.
As to `COc1ccc(C(=O)Nc2ccc(F)c([C@]3(C)CCOC(N)=N3)c2)nc1` [Example 30, 5-Methoxy-pyridine-2-carboxylic acid [3-((S)-2-amino-4-methyl-5,6-dihydro-4H-[1,3]oxazin-4-yl)-4-fluoro-phenyl]-amide], the pIC50 is 7.92.

With `Cn1ccc(C(=O)Nc2ccc(F)c([C@]3(C)CCOC(N)=N3)c2)n1` [Example 29], the pIC50 is 8.52.

`C[C@@]1(c2cc(NC(=O)C(F)C(F)(F)F)ccc2F)CCOC(N)=N1` (stereo partly drawn) [Example 45, N-[3-((S)-2-Amino-4-methyl-5,6-dihydro-4H-[1,3]oxazin-4-yl)-4-fluoro-phenyl]-2,3,3,3-tetrafluoro-propionamide] had a pIC50 of 6.40.

`C[C@@]1(c2cc(NC(=O)c3ncc(F)cc3Cl)ccc2F)CCOC(N)=N1` [Example 35] showed a pIC50 of 7.96.

`C[C@@]1(c2cc(NC(=O)c3ncc(C(F)(F)F)cc3Cl)ccc2F)CCOC(N)=N1` [Example 31, 3-Chloro-5-trifluoromethyl-pyridine-2-carboxylic acid [3-((S)-2-amino-4-methyl-5,6-dihydro-4H-[1,3]oxazin-4-yl)-4-fluoro-phenyl]-amide] showed a pIC50 of 7.96.

In turn, `C[C@@]1(c2cc(NC(=O)c3ccccn3)ccc2F)CCOC(N)=N1` [Example 4, Pyridine-2-carboxylic acid [3-((S)-2-amino-4-methyl-5,6-dihydro-4H-[1,3]oxazin-4-yl)-4-fluoro-phenyl]-amide] showed a pIC50 of 6.64.

In turn, `CC[C@@]1(c2cc(NC(=O)c3ccc(C)s3)ccc2F)CCOC(N)=N1` [Example 20] gave a pIC50 of 7.32.

`Cc1c(C(=O)Nc2ccc(F)c([C@@]3(C)N=C(N)OCC34CC4)c2)noc1Cl` [Example 57, (S)—N-(3-(6-Amino-8-methyl-5-oxa-7-azaspiro[2.5]oct-6-en-8-yl)-4-fluorophenyl)-5-chloro-4-methylisoxazole-3-carboxamide] had a pIC50 of 5.19.

Regarding `C[C@@]1(c2cc(NC(=O)c3ccc(C(F)(F)F)cn3)ccc2F)CCOC(N)=N1` [Example 5, 5-Trifluoromethyl-pyridine-2-carboxylic acid [3-((S)-2-amino-4-methyl-5,6-dihydro-4H-[1,3]oxazin-4-yl)-4-fluoro-phenyl]-amide], the pIC50 was 7.05.

For `CC[C@@]1(c2cc(NC(=O)c3coc(C)n3)ccc2F)CCOC(N)=N1` [Example 24], the pIC50 was 9.00.

In the case of `C[C@@]1(c2cc(NC(=O)c3nccc4ccsc34)ccc2F)CCOC(N)=N1` [Example 11, Thieno[2,3-c]pyridine-7-carboxylic acid [3-((S)-2-amino-4-methyl-5,6-dihydro-4H-[1,3]oxazin-4-yl)-4-fluoro-phenyl]-amide], the negative logarithm of the IC50 (pIC50) is 7.55.

`C[C@]1(c2cc(NC(=O)c3c(F)cccc3F)ccc2F)N=C(N)OCC12CC2` [Example 47, (S)—N-(3-(6-Amino-8-methyl-5-oxa-7-azaspiro[2.5]oct-6-en-8-yl)-4-fluorophenyl)-2,6-difluorobenzamide] showed a pIC50 of 6.21.

The molecule `C[C@@]1(c2cc(NC(=O)C3CC3(F)F)ccc2F)CCOC(N)=N1` (stereo partly drawn) [Example 46, 2,2-Difluoro-cyclopropanecarboxylic acid [3-((S)-2-amino-4-methyl-5,6-dihydro-4H-[1,3]oxazin-4-yl)-4-fluoro-phenyl]-amide] gave a pIC50 of 7.15.

As for `NC1=N[C@@]2(c3cc(NC(=O)c4ccc(Cl)cn4)ccc3F)COC[C@H]2CO1` [Example 65, 5-Chloro-pyridine-2-carboxylic acid [3-((4aS,7aS)-2-amino-4a,5-dihydro-4H-furo[3,4-d][1,3]oxazin-7a-yl)-4-fluoro-phenyl]-amide], the pIC50 is 7.22.

As to `Cc1ccsc1C(=O)Nc1ccc(F)c([C@]2(C)CCOC(N)=N2)c1` [Example 34], the pIC50 is 6.46.

For the molecule `Cn1cc(Cl)c(C(=O)Nc2ccc(F)c([C@@]3(C)N=C(N)OCC34CC4)c2)n1` [Example 56, (S)—N-(3-(6-Amino-8-methyl-5-oxa-7-azaspiro[2.5]oct-6-en-8-yl)-4-fluorophenyl)-4-chloro-1-methyl-1H-pyrazole-3-carboxamide], the pIC50 is 8.22.

`C[C@@]1(c2cc(NC(=O)c3cccc(Cl)n3)ccc2F)CCOC(N)=N1` [Example 32, 6-Chloro-pyridine-2-carboxylic acid [3-((S)-2-amino-4-methyl-5,6-dihydro-4H-[1,3]oxazin-4-yl)-4-fluoro-phenyl]-amide] gave a pIC50 of 8.40.

Turning to `C[C@]1(c2cc(NC(=O)c3ccc(Cl)cn3)ccc2F)N=C(N)OCC12CC2` [Example 36, 5-Chloro-pyridine-2-carboxylic acid [3-((S)-6-amino-8-methyl-5-oxa-7-aza-spiro[2.5]oct-6-en-8-yl)-4-fluoro-phenyl]-amide], the pIC50 was 7.80.

`CC[C@@]1(c2cc(NC(=O)c3ccc(Cl)cn3)ccc2F)CCOC(N)=N1` [Example 19, 5-Chloro-pyridine-2-carboxylic acid [3-((S)-2-amino-4-ethyl-5,6-dihydro-4H-[1,3]oxazin-4-yl)-4-fluoro-phenyl]-amide] had a pIC50 of 8.10.

In turn, `C[C@@]1(c2cc(NC(=O)C3(C(F)(F)F)CC3)ccc2F)CCOC(N)=N1` [Example 58, 1-Trifluoromethyl-cyclopropanecarboxylic acid [3-((S)-2-amino-4-methyl-5,6-dihydro-4H-[1,3]oxazin-4-yl)-4-fluoro-phenyl]-amide] had a pIC50 of 6.15.

`C[C@@]1(c2cc(NC(=O)c3ncccc3-c3ccccc3)ccc2F)CCOC(N)=N1` [Example 12, 3-Phenyl-pyridine-2-carboxylic acid [3-((S)-2-amino-4-methyl-5,6-dihydro-4H-[1,3]oxazin-4-yl)-4-fluoro-phenyl]-amide] showed a pIC50 of 7.47.

As for `C[C@]1(c2cc(NC(=O)c3ncc(F)cc3F)ccc2F)N=C(N)OCC12CC2` [Example 49, (S)—N-(3-(6-Amino-8-methyl-5-oxa-7-azaspiro[2.5]oct-6-en-8-yl)-4-fluorophenyl)-3,5-difluoropicolinamide], the pIC50 was 7.85.

In turn, `C[C@@]1(c2cc(NC(=O)c3ncccc3F)ccc2F)CCOC(N)=N1` [Example 6, 3-Fluoro-pyridine-2-carboxylic acid [3-((S)-2-amino-4-methyl-5,6-dihydro-4H-[1,3]oxazin-4-yl)-4-fluoro-phenyl]-amide] had a pIC50 of 7.72.

`C[C@]1(c2cc(NC(=O)c3ncc(Cl)cn3)ccc2F)N=C(N)OCC12CC2` [Example 44, 5-Chloro-pyrimidine-2-carboxylic acid [3-((S)-6-amino-8-methyl-5-oxa-7-aza-spiro[2.5]oct-6-en-8-yl)-4-fluoro-phenyl]-amide] had a pIC50 of 8.15.

Turning to `C[C@@]1(c2cc(NC(=O)c3ncccc3C(F)(F)F)ccc2F)CCOC(N)=N1` [Example 16, 3-Trifluoromethyl-pyridine-2-carboxylic acid [3-((S)-2-amino-4-methyl-5,6-dihydro-4H-[1,3]oxazin-4-yl)-4-fluoro-phenyl]-amide], the pIC50 was 7.66.

`Cc1cc(Cl)cnc1C(=O)Nc1ccc(F)c([C@@]2(C)N=C(N)OCC23CC3)c1` [Example 38, 5-Chloro-3-methyl-pyridine-2-carboxylic acid [3-((S)-6-amino-8-methyl-5-oxa-7-aza-Spiro[2.5]oct-6-en-8-yl)-4-fluoro-phenyl]amide]: the pIC50 is 8.29.

The molecule `CC1(C(=O)Nc2ccc(F)c([C@]3(C)CCOC(N)=N3)c2)COC1` [Example 62, 3-Methyl-oxetane-3-carboxylic acid [3-((S)-2-amino-4-methyl-5,6-dihydro-4H-[1,3]oxazin-4-yl)-4-fluoro-phenyl]-amide] showed a pIC50 of 5.04.

The molecule `C[C@@]1(c2cc(NC(=O)c3ccc(F)s3)ccc2F)CCOC(N)=N1` [Example 7, 5-Fluoro-thiophene-2-carboxylic acid [3-((S)-2-amino-4-methyl-5,6-dihydro-4H-[1,3]oxazin-4-yl)-4-fluoro-phenyl]-amide] gave a pIC50 of 6.47.

`CC[C@@]1(c2cc(NC(=O)c3ncc(Cl)cc3C)ccc2F)CCOC(N)=N1` [Example 23] showed a pIC50 of 8.05.

In turn, `COc1cccnc1C(=O)Nc1ccc(F)c([C@]2(C)CCOC(N)=N2)c1` [Example 27, 3-Methoxy-pyridine-2-carboxylic acid [3-((S)-2-amino-4-methyl-5,6-dihydro-4H-[1,3]oxazin-4-yl)-4-fluoro-phenyl]-amide] had a pIC50 of 7.64.
